The structures appear in SMILES notation.

A short description of data set [1]: collision cross section (TIMS, N2 drift gas) of the primary ion; higher = larger gas-phase ion size.
Data set [2] is described as follows: reversed-phase LC retention time (C18, 15 min MeOH gradient); higher = more hydrophobic / later elution.
The mark [3] stands for this setting: ionization mode: ESI+, ion species: [M+H]+.
Setting [4] is: ionization mode: ESI+, ion species: [M]+.
Where [5] appears, read: ionization mode: ESI-, ion species: [M-H]-.

`CC1CCN(CCCC(=O)c2ccc(F)cc2)CC1` [Melperon] displayed a collision cross section in data set [1] (setting [3]) of 163.5 Å². In data set [2] (setting [3]), the “reversed-phase LC retention time” value is 9.83 min.
Taken in the same sequence, the figures for `CC12CC3CC(C)(C1)CC(N)(C3)C2` [Memantine] were 144.78 Å² and 11.7 min.
In the same order, the values of `CC#Cc1cc(C)nc(Nc2ccccc2)n1` [Mepanipyrim] are 152.51 Å² and 14.6 min.
Turning to `C[N+]1(C)CCCCC1` [Mepiquat], the collision cross section in data set [1] (setting [4]) is recorded as 118.75 Å². The “reversed-phase LC retention time” value in data set [2] (setting [4]) was 1.01 min.
For the molecule `COC(=O)c1ccc(CNS(C)(=O)=O)cc1S(=O)(=O)NC(=O)Nc1nc(OC)cc(OC)n1` [Mesosulfuron-methyl], the collision cross section came to 201.99 Å² in data set [1] (setting [3]) and 206.67 Å² in data set [1] (setting [5]). Moreover, the “reversed-phase LC retention time” value in data set [2] (setting [3]) stood at 12.7 min; in data set [2] (setting [5]), 9.27 min.
In the same order, the values of `N#Cc1ccc(C/C(=N\NC(=O)Nc2ccc(OC(F)(F)F)cc2)c2cccc(C(F)(F)F)c2)cc1` [Metaflumizone] are 213.54 Å², 221.65 Å², 16.8 min and 17.3 min.
On to `COCC(=O)N(c1c(C)cccc1C)C(C)C(=O)OC` (stereo unspecified) [Metalaxyl], for which, in data set [1] (setting [3]), the collision cross section is given as 160.45 Å². Also, in data set [2] (setting [3]), the “reversed-phase LC retention time” value is 12.7 min.
Consider `Cc1nc(=O)c(-c2ccccc2)n[nH]1` [Metamitron-desamino], for which the collision cross section is listed as 139.91 Å² in data set [1] (setting [3]) and 137.07 Å² in data set [1] (setting [5]). Further, the entries for the “reversed-phase LC retention time” value in data set [2] (setting [3]) and in data set [2] (setting [5]) were 8.87 min and 6.92 min, respectively.
Molecule `Cc1nnc(-c2ccccc2)c(=O)n1N` [Metamitron] returned a collision cross section in data set [1] (setting [3]) of 143.85 Å². For the same molecule, the “reversed-phase LC retention time” value in data set [2] (setting [3]) is 8.87 min.
Taken in the same sequence, the figures for `Cc1cccc(C(=O)O)c1N(Cn1cccn1)C(=O)C(=O)O` [Metazachlor BH479-12] were 160.33 Å² and 8.13 min.
For the molecule `Cc1cccc(C)c1N(Cn1cccn1)C(=O)CS(=O)CC(=O)O` (stereo unspecified) [Metazachlor BH 479-9], the collision cross section in data set [1] (setting [3]) came out at 175.08 Å²; in data set [1] (setting [5]), 178.82 Å². Further, the “reversed-phase LC retention time” value turned out to be 9.7 min in data set [2] (setting [3]) and 8.94 min in data set [2] (setting [5]).
In turn, `Cc1cccc(C)c1N(Cn1cccn1)C(=O)CS(C)=O` (stereo unspecified) [Metazachlor BH 479-11] had a collision cross section in data set [1] (setting [3]) of 163.01 Å². In addition, the “reversed-phase LC retention time” value in data set [2] (setting [3]) came out at 10.3 min.
In the case of `Cc1cccc(C)c1N(Cn1cccn1)C(=O)CS(=O)(=O)O` [Metazachlor ESA], the collision cross section in data set [1] (setting [3]) was 168.61 Å²; in data set [1] (setting [5]), 168.78 Å². For the same molecule, the figures for the “reversed-phase LC retention time” value in data set [2] (setting [3]) and in data set [2] (setting [5]) were 9.52 min and 9.35 min, respectively.
`Cc1cccc(C)c1N(Cn1cccn1)C(=O)C(=O)O` [Metazachlor OA] yielded a collision cross section in data set [1] (setting [5]) of 162.14 Å². In addition, the “reversed-phase LC retention time” value in data set [2] (setting [5]) stood at 8.92 min.
`Cc1cccc(C)c1N(Cn1cccn1)C(=O)CO` [Metazachlor-2-hydroxy]: the collision cross section in data set [1] (setting [3]) was 156.95 Å². For the same molecule, the “reversed-phase LC retention time” value in data set [2] (setting [3]) was found to be 11.1 min.
Taken in the same sequence, the figures for `Cc1cccc(C)c1N(Cn1cccn1)C(=O)CCl` [Metazachlor] were 159.2 Å² and 12.9 min.
With `CC1(C)CCC(Cc2ccc(Cl)cc2)C1(O)Cn1cncn1` (stereo unspecified) [Metconazole], the collision cross section in data set [1] (setting [3]) stood at 170.17 Å². The “reversed-phase LC retention time” value in data set [2] (setting [3]) was determined as 15.8 min.
In the same order, the values of `CNC(=O)Oc1cc(C)c(S(C)(=O)=O)c(C)c1` [Methiocarb sulfone] are 162.89 Å² and 9.59 min.
In the same order, the values of `Cc1cc(O)cc(C)c1S(C)=O` (stereo unspecified) [Methiocarb-sulfoxide phenol] are 138.02 Å² and 8.4 min.
`CN(Cc1cnc2nc(N)nc(N)c2n1)c1ccc(C(=O)N[C@@H](CCC(=O)O)C(=O)O)cc1` [Methotrexate] had a collision cross section in data set [1] (setting [3]) of 197.21 Å². In addition, the “reversed-phase LC retention time” value in data set [2] (setting [3]) amounted to 7.82 min.
As to `COC(=O)CCc1cc(C(C)(C)C)c(O)c(C(C)(C)C)c1` [Methyl 3-(3,5-di-tert-butyl-4-hydroxyphenyl)propionate], the collision cross section in data set [1] (setting [5]) was 179.88 Å². Also, the “reversed-phase LC retention time” value in data set [2] (setting [5]) was found to be 17.3 min.
In turn, `Cn1sc(Cl)cc1=O` [Methylchloroisothiazolinone] had a collision cross section in data set [1] (setting [3]) of 120.77 Å². Besides, in data set [2] (setting [3]), the “reversed-phase LC retention time” value worked out at 7.46 min.
In data set [1] (setting [3]), `Cn1ncc(N)c(Cl)c1=O` [Methyldesphenylchloridazon] returned a collision cross section of 123.51 Å². The “reversed-phase LC retention time” value in data set [2] (setting [3]) was determined as 5.06 min.
The molecule `C[P+](c1ccccc1)(c1ccccc1)c1ccccc1` [Methyltriphenylphosphonium] yielded a collision cross section in data set [1] (setting [4]) of 162.96 Å². Moreover, in data set [2] (setting [4]), the “reversed-phase LC retention time” value worked out at 10.1 min.
Consider `CON(C)C(=O)Nc1ccc(Br)cc1` [Metobromuron], for which the collision cross section in data set [1] (setting [3]) turned out to be 148.37 Å². In data set [2] (setting [3]), the “reversed-phase LC retention time” value worked out at 12.6 min.
For `CCc1cccc(C)c1N(C(=O)CS(=O)(=O)O)C(C)COC` (stereo unspecified) [Metolachlor ESA], the collision cross section in data set [1] (setting [3]) amounted to 170.74 Å²; in data set [1] (setting [5]) it was 173.48 Å². The results for the “reversed-phase LC retention time” value in data set [2] (setting [3]) and in data set [2] (setting [5]) were 12.1 min and 12 min, respectively.
In the same order, the values of `CCc1cccc(C)c1N(C(=O)C(=O)O)C(C)COC` (stereo unspecified) [Metolachlor OA] are 160 Å², 165.62 Å², 12.7 min and 11.9 min.
`CCc1cccc(C)c1N(C(=O)CCl)C(C)COC` (stereo unspecified) [Metolachlor] returned a collision cross section in data set [1] (setting [3]) of 160.17 Å². In data set [2] (setting [3]), the “reversed-phase LC retention time” value turned out to be 15.1 min.
In the same order, the values of `CC(C)NCC(O)COc1ccc(CC(=O)O)cc1` (stereo unspecified) [Metoprolol acid] are 166.24 Å² and 7.62 min.
Taken in the same sequence, the figures for `COCCc1ccc(OCC(O)CNC(C)C)cc1` (stereo unspecified) [Metoprolol] were 171.87 Å² and 9.39 min.
Taken in the same sequence, the figures for `COc1cc(C)c(C(=O)c2c(OC)ccc(Br)c2C)c(OC)c1OC` [Metrafenone] were 184.27 Å² and 15.9 min.

Values taken from the supplement of paper PMC12613149.
